The values that follow come from US3941795A, “α-ARYL-4-SUBSTITUTED PIPERIDINOALKANOL DERIVATIVES” (Richardson-Merrell Inc., priority 1974, dated 1976).

In the test the test system is wheals induced by intradermal injections on 1γ of histamine. The experiment in a line: reduction by 50% of wheals induced by intradermal injections of histamine into guinea pigs (antihistamine). It counts as in vivo. Particulars: Cavia porcellus, po, 1 h, orally administered one hour prior to the histamine injection, 1γ of histamine intradermal, read-out: ED50 (amount required to reduce by 50% wheals induced by intradermal injections of histamine). The text has this: To illustrate the utility of the compounds of this invention the following tabulation indicates the amount of certain representative compounds of this invention required to reduce by 50% wheals induced by intradermal injections on 1γ of histamine into guinea pigs. Each compound was orally administered one hour prior to the histamine injection.

Structures are written as SMILES.

As for `CC(C)(C)c1ccc(C(O)CCCN2CCC(C(O)(c3ccccc3)C3CCCCC3)CC2)cc1.Cl` (stereo not drawn) [4-(α-cyclohexyl-α-hydroxybenzyl)-α-(p-tert-butylphenyl)-1-piperidinebutanol hydrochloride], the ED50 was found to be 12 mg/kg. Take `COc1ccccc1C(=C1CCN(CCCC(O)c2ccc(C(C)(C)C)cc2)CC1)c1ccccc1` (stereo not drawn) [4-[4-[α-(o-Anisyl)benzylidene]-α-(p-tert-butylphenyl)-1-piperidinebutanol]]: the median effective dose (ED50) came out at 4.4 mg/kg.
